Test results taken from patent publication US9315496B2, “Benzopyrone derivative and use thereof” (HUAZHONG UNIVERSITY OF SCIENCE & TECHNOLOGY, priority 2011, dated 2016).

Experiments:
[1] = Catalepsy assay; format: in vivo; conditions: both sexes, Kunming (KM), mouse, in vivo; mice, po
Protocol: (§1) Healthy mice of Kunming breed (with half male and half female, (22±2)g) were provided by Qinglongshan Animal Cultivation Center, Nanjing.
(§2) Instruments: self-made bar-grabbing apparatus: stainless steel bar in mice box, which was 0.3 cm in diameter and […].
(§3) Corresponding solvent double-distilled water was administered intragastrically to the negative control group and the model group, corresponding positive drugs were administered intragastrically to the positive drug groups (a small amount of acetic acid was first added and then double-distilled water was added when dissolving), and corresponding dosages of compounds were administered intragastrically to the compound groups for each dosage, with the volume for intragastric administration as 0.1 ml/10 g. At 30 min, 60 min, 90 min after the intragastric administration, the two forepaws of the mice were gently placed on the bars (which were 20 cm in length, 0.3 cm in diameter, and 5.5 cm above the bench), and the hindpaws of the animals were placed on the bottom of the box. The durations for the mice to maintain the posture with the two forepaws on the bars were recorded, and 30 s of spasticity without moving was considered as the positive response. In the case the forepaws of the mice were not put down persistently, the observation was terminated at 60 s. The numbers of animals with positive response in each of the compound dosage groups were counted.

[2] = system: mice of Kunming breed; test: MK-801 induced high activity in mice; format: in vivo; conditions: for ED50: Mus musculus, 1.5 h, po, MK-801 0.1 mg/kg ip, spontaneous activity in 90 min; for improvement of MK-801 induced high activity (in words): compared to the model group
Protocol: Healthy mice of Kunming breed (with half male and half female, (20±2)g) were provided by Qinglongshan Animal Cultivation Center, Nanjing.
Subsequently, the spontaneous activities of the mice of each group in 90 min were measured.

[3] = system: KM mice; test: Apomorphine induced clambering assay of mice; format: in vivo; conditions: for ED50: Mus musculus, po, apomorphine 1 mg/kg sc
Protocol: Healthy KM mice (male, with body weight of 18-22 g) were provided by Qinglongshan Animal Cultivation Center, Nanjing.
Test positive drugs: haloperidol, clozapine, risperidone, olanzapine, aripiprazole, ziprasidone, quetiapine.
Apomorphine provided by Sigma Company was dissolved in 0.9% NaCl (containing 0.1% vitamin C) before use, and was freshly formulated before use.
Corresponding solvent double-distilled water was administered intragastrically to the negative control group and the model group, corresponding positive drugs were administered intragastrically to the positive drug groups (a small amount of acetic acid was first added and then double-distilled water was added when dissolving), and corresponding dosages of compounds were administered intragastrically to the compound groups for each dosage, with the volume for intragastric administration as 0.1 ml/10 g. 1 hour after the intragastric administration, apomorphine was subcutaneously injected (1 mg/kg), with the volume as 0.1 ml/10 g. After the injection of apomorphine, the mice were immediately put into the clambering cages. After 5 min of adaptation, the behaviors of the mice at 10-11, 20-21, and 30-31 min after the injection of apomorphine were observed and scored. Scoring criteria: 4 paws on the floor was scored as 0; 2 forepaws on the cage was scored as 1; and 4 paws on the cage was scored as 2.

[4] = target: T1, D3 receptor (Homo sapiens, UniProt P35462); test: D3 receptor assay ([3H]-Spiperone, HEK-293 cells); format: binding
T1 construct: expressed in transfected cells; host or cells: HEK-293
Protocol: After the cells were centrifuged at 1000 rpm for 5 min, the supernatant was discarded, and the cell pellet was collected and stored in a −20° C. fridge for reservation. It was re-suspended with Tris-Cl (pH 7.4) in the assay.
Tris was divided into aliquots by Genetimes Technology Inc.
Competitive binding test for receptors: 20 μl of each of the test compounds and 20 μl of the radioactive ligand together with 160 μl of the receptor proteins were added into the reaction tubes, and the final concentrations of the test compound and the positive drug were all 10 μmol/L. After 50 min of incubation in 30° C. water bath, the tubes were immediately moved to ice bath to terminate the reactions. GF/C glass fiber filter papers were used for rapid sucking filtration on a Millipore cell sample collector, elution buffer (50 mM Tris-HCl, PH 7.4) was applied for 3 ml×3 times, and microwave was applied for 4-5 min for drying. The filter papers were moved into 0.5 ml centrifuge tubes, and 500 μl of lipid-soluble scintillation solution was added. The tubes were allowed to stand still for over 30 min in dark, and the intensities of radioactivity were measured by a counter.

[5] = in vivo; conditions: both, mouse, po
Protocol: (§4) KM mice (half male and half female) were randomly divided into several groups (with 2-5 mice in each group), which were respectively the 2000 mg/kg groups for each compound, and the solvent group. 0.2 ml/10 g were administered intragastrically. The death of the animals in 3 days were observed. (In the case 3 or more animals survived in 3 days without notable abnormity in their life states, the observation was continued until the assay was completed in 7 days. In the case 3 or more animals died in 3 days, the median lethal dose method was used to determine the LD50).
(§5) 0.2 ml/10 g were administered intragastrically, and the death of the animals in 1-3 days were observed.

[6] = target: dopamine D2 receptor (Rattus norvegicus, UniProt P61169); test: D2 receptor binding assay (3H-Spiperone, rat brain striatum membrane); conditions: for inhibition at 10 µM: read-out: D2 inhibition %
Protocol: Rats were sacrificed by cervical dislocation on ice. Brain striatum was rapidly taken, and 2 brain striatums were combined into a centrifuge tube, to which 3 ml of buffer (0.05 M Tris-HCl buffer, containing NaCl 120 mM, KCl 5 mM, MgCl2 1 mM, CaCl2 1 mM) was added, homogenization was conducted for 3-4 s at level 4 for four times, and then 5 ml of buffer was then added. The weight of the homogenized tubes were adjusted using a balance, and centrifugation was conducted at 12000 r, 4° C. for 20 min. The supernatant was discarded, and 3 ml of buffer was added (0.05 M Tris-HCl buffer, containing NaCl 120 mM, KCl 5 mM, MgCl2 1 mM, CaCl2 1 mM). Vortex mixer was used for blending, and then 5 ml of buffer was added (0.05 M Tris-HCl buffer, containing NaCl 120 mM, KCl 5 mM, MgCl2 1 mM, CaCl2 1 mM). Centrifugation was conducted (repeated 3 times). After the centrifugations, the supernatant was discarded, and the pellets were stored at −80° C. for future use.
Beckman LS-6500 Multi-function Liquid Scintillation Counter was used.
(1) The prepared membrane was first applied with appropriate amount of homogenized liquid, and homogenizer was used for evenly dispersing. 15 tubes were mixed into a 100 ml container, and appropriate amount of homogenized liquid was added to give 50 ml of membrane suspension, which was reserved for future use.
(2) 100 μL of membrane preparation and 100 μL of buffer were added into each reaction tube.
(3) 100 μL of homogenized liquid was added into the total binding tube (TB), 100 μL of Butaclamol (final concentration 10^−5 M) was added into the non-specific binding tube (NB), and 100 μL of the test compound (final concentration 10^−5 M) was added into the specific binding tube (SB) for each compound.
(5) Each of the reaction tubes was incubated at 37° C. for 20 min. After the reaction was completed, the bound ligands were rapidly filtered under reduced pressure, and the ice-chilled assay buffer was used for adequate washing. The filter was taken out and put into a 3 ml scintillation vial, and 2 ml of toluene scintillation solution was added and blended.
(6) The scintillation vials were put into Liquid Scintillation Counter for counting. Inhibitory rate(1%)=(Total binding tube cpm−compound cpm)/(Total binding tube cpm−non-specific binding tube cpm)×100%
Each assay for the compounds was conducted in duplicate.

[7] = target: 5-HT2C receptor (Rattus norvegicus, UniProt P08909); test: 5HT2C receptor binding assay ([3H]-mesulergine, rat brain striatum membrane)
[8] = target: T2, 5-HT1A receptor (Rattus norvegicus, UniProt P19327); test: 5HT1A receptor binding assay (3H-8-OH-DPAT, rat brain striatum membrane)
T2 sequence (P19327 1-422): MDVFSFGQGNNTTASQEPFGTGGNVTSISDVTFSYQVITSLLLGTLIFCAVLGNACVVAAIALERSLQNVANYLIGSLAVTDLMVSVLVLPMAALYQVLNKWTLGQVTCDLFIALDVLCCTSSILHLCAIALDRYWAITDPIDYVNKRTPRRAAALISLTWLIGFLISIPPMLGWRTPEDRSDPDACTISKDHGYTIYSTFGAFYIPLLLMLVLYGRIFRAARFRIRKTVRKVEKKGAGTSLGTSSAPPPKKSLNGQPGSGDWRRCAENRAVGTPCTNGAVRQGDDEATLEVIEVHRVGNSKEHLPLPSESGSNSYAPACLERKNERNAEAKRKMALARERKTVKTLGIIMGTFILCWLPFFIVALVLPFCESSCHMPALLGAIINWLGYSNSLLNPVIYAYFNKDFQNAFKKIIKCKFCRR
Protocol: Incubation at 37° C. was conducted for 10 min, the weight of the tubes were adjusted using a balance after incubation. […] Centrifugation was conducted and repeated 3 times.

[9] = target: 5-HT2A receptor (Rattus norvegicus, UniProt P14842); test: 5HT2A receptor binding assay ([3H]-Ketanserin, rat brain striatum membrane)
[10] = system: KM mice; conditions: both, mouse, in vivo
Protocol: as §4, §5

[11] = system: KM mice; test: Catalepsy assay; format: in vivo
Protocol: as §1, §2, §3

[12] = in vitro receptor binding assay

Chain of 5-HT2A receptor (P14842 whole entry): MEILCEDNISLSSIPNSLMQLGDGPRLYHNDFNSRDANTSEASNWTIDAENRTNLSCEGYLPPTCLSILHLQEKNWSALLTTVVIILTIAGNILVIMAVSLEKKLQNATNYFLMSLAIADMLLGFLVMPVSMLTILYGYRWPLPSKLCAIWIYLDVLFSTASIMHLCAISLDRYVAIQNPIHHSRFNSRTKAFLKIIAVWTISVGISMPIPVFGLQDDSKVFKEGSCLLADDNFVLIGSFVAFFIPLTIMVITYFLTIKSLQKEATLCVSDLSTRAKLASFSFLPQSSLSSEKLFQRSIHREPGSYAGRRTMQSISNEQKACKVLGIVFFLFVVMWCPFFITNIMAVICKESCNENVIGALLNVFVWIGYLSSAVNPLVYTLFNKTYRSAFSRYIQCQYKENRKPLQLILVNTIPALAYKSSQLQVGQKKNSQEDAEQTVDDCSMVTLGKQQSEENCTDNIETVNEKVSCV
Chain of dopamine D2 receptor (P61169 whole entry): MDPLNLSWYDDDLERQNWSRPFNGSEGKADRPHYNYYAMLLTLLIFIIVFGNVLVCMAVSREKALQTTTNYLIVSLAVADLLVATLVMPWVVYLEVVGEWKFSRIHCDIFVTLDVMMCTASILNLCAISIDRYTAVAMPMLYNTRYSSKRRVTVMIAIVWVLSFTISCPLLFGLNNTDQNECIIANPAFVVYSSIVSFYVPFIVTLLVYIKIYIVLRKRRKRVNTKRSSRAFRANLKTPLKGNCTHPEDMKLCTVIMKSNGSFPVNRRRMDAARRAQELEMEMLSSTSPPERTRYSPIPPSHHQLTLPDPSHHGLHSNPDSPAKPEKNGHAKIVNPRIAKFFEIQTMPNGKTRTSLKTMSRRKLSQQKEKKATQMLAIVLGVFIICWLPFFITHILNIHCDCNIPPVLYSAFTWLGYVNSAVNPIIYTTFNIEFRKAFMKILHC
T1 sequence (P35462 whole entry): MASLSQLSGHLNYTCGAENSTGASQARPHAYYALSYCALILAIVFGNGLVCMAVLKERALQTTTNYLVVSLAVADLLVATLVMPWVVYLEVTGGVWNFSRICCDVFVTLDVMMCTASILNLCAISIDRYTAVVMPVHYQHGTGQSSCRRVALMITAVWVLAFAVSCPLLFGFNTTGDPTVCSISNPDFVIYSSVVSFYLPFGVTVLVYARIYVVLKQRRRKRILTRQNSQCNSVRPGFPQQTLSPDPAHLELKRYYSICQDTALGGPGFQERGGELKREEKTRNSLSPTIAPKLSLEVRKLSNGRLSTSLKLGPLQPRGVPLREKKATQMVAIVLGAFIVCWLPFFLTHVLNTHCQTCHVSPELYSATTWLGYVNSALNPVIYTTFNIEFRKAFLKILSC
Chain of 5-HT2C receptor (P08909 33-460): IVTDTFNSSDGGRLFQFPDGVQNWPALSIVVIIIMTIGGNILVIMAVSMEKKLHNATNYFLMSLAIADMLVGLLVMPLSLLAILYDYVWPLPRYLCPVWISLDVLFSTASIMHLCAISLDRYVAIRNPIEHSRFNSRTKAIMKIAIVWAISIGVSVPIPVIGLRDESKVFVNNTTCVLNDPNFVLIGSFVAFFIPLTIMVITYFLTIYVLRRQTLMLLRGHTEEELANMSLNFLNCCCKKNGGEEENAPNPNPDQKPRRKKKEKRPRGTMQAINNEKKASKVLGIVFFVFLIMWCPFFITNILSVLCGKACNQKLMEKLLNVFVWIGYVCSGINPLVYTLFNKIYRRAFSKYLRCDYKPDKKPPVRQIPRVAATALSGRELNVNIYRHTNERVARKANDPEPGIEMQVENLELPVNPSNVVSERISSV

Cc1cc(=O)oc2cc(OCCCN3CCC(c4noc5cc(F)ccc45)CC3)ccc12 [Compound 7, 7-(3-(4-(3-(6-fluoro-benzisoxazole)-1-piperidyl)-n-propoxy))-4-methyl-2H-benzopyran-2-one]
ED50 [1]: 1.5 mg/kg | ED50 [2]: 0.27 mg/kg | ED50 [3]: 0.15 mg/kg | inhibition at 10 µM ([4]; final concentration 10 μmol/L, [3H]-Spiperone, HEK-293 cells): 101% | affinity for D3 receptor (in words) [4, 12]: relatively stronger affinities | LD50 [5]: 1000 to 2000 mg/kg | affinity for D2 receptor (in words) [6, 12]: relatively stronger affinities | inhibition at 10 µM [6]: 103% | affinity for 5-HT2C receptor (in words) [7, 12]: lower affinities | inhibition at 10 µM ([7]; read-out: 5HT2C inhibition %): 82% | IC50 ([8]; cells marked ^a, 3H-8-OH-DPAT, rat brain striatum membrane): 5.95 nM | affinity for 5-HT1A receptor (in words) [8, 12]: relatively stronger affinities | IC50 ([9]; cells marked ^a, [3H]-Ketanserin, rat brain striatum membrane): 0.69 nM | affinity for 5-HT2A receptor (in words) [9, 12]: relatively stronger affinities

O=C1CCc2ccc(OCCCCN3CCN(c4cccc(Cl)c4Cl)CC3)cc2N1 [aripiprazole]
LD50 (po, mg/kg) [10]: 93 mg/kg

Cc1cc(=O)oc2c(Cl)c(OCCCCN3CCC(c4noc5cc(F)ccc45)CC3)ccc12 [Compound 19, 7-(4-(4-(3-(6-fluoro-benzisoxazole)-1-piperidyl)-n-butoxy))-4-methyl-8-chloro-2H-benzopyran-2-one]
ED50 [1]: 70.8 mg/kg | EPS at effective dosage (in words) [11]: did not cause EPS | ED50 [2]: 1.33 mg/kg | improvement of MK-801 induced high activity (in words) [2]: significantly improve | improvement of apomorphine induced clambering symptoms (in words) [3]: effectively improve | ED50 [3]: 1.68 mg/kg | LD50 ([5]; KM): > 2000 mg/kg | inhibition at 10 µM [6]: 27.8% | inhibition at 10 µM ([8]; test compound final concentration 10^−5 M, 3H-8-OH-DPAT, rat brain striatum membrane): 104% | inhibition at 10 µM ([9]; test compound final concentration 10^−5 M, [3H]-Ketanserin, rat brain striatum membrane, read-out: 5HT2A inhibition %): 119%

Cc1cc2c(s1)Nc1ccccc1N=C2N1CCN(C)CC1 [olanzapine, reference compound]
ED50 [3]: 0.11 mg/kg

Cc1nc2n(c(=O)c1CCN1CCC(c3noc4cc(F)ccc34)CC1)CCCC2 [risperidone, reference compound]
improvement of MK-801 induced high activity (in words) [2]: significantly improve | improvement of apomorphine induced clambering symptoms (in words) [3]: effectively improve | ED50 [3]: 0.015 mg/kg | LD50 [5]: 82.1 mg/kg
